Source: US20250011319A1, “SUBSTITUTED 1H-PYRAZOLO [4,3-c] QUINOLINES, METHODS OF PREPARATION, AND USE THEREOF” (Lomond Therapeutics, Inc., priority 2021, published 2025)
Like-named read-outs stand apart in the source and are kept apart here.

Tests used:
[1] = target: recombinant HPK1 protein (Homo sapiens (Human), UniProt Q92918); assay: Primary HPK1 enzymatic inhibition (ADP-Glo luminescence); type: biochemical; conditions: recombinant HPK1, MBP substrate, 1 hour at room temperature
Method: Example A. Primary Assay used to determine potency of HPK1 enzymatic activity inhibition. Compound activity was determined using recombinant HPK1 protein and MBP Substrate (both Promega, Cat #V6398) in an in vitro enzymatic reaction. The enzymatic assay used to determine activity was a Luminescence assay using a Microplate Reader ClarioStar Plus. The enzymatic reaction was carried out in assay buffer (40 mM TRIS-HCl pH 7.4-7.6, 20 mM MgCl2, 0.05 mM DTT, 0.1 mg/ml BSA). The compounds were dispensed on a 384 well Diamond Well Plate (Axigen, Cat #P-384-120SQ-C—S) using the Biomek FX liquid handling system at 100× solutions of compounds in DMSO. 2×HPK1-MBP mix (final concentration 0.64 ng/μl of HPK1 and 45 ng/μl of MBP) was prepared in 1× Assay buffer and 5.5 μl of mixture per well was added into 384 w white Reaction plate with NBS (Corning, Cat #4513). 5.5 μl of MBP substrate w/o HPK1 in 1× buffer was used for negative control. Plates were centrifuged for 1 min at 100 g. Next step the Compounds were added to Reaction plate using Biomek station via following steps: 1l of 100× compounds (in DMSO) were mixed thoroughly with 49 ul of 2×10 uM ATP in Assay Buffer, then 5.5 μl of this mixture was added to Reaction plate with 5.5 μl of HPK1-MBP mix. Plates were centrifuged for 1 min at 100 g and incubated for 1 hour at room temperature. Next 3 μL of ADP-Glo reagent (Promega, ADP-Glo™ Kinase Assay, Cat #V9102) per well was added. Plates were incubated for 30 minutes at room temperature. Then 6 μL of Kinase detection reagent (Promega, ADP-Glo™ Kinase Assay, Cat #V9102) per well was added and the Luminescence was measured using Microplate Reader. The % inhibition was then used to calculate the IC50 values.

[2] = tested on: MOLM-13; assay: MOLM-13 Cytotoxicity Assay; type: cell-based; conditions: Homo sapiens
Method: Example C. MOLM-13 Cytotoxicity Assay. Assay was performed according the procedure described in O. A. Elgamal et al. J. Hematol. Oncol. 2020, 13, 8 (https://doi.org/10.1186/s13045-019-0821-7).

[3] = tested on: MV4-11 cell lines; assay: MV4-11 Cytotoxicity Assay (CellTiter-Glo); type: cell-based; conditions: Homo sapiens, read-out: MV4-11, CC50
Method: Example B. MV4-11 Cytotoxicity Assay. CC50 was determined using MV4-11 cell lines in RPMI-1640 culture medium (PanEco cat #C363). Compounds were prepared as 200× stocks with serial dilution in 100% DMSO with a final concentration of 1×. Dispersed 40 μL in 384-well plates at a concentration of 4000 cells per well using a robotic station Biomek (Beckman). Before adding compounds, the cells were incubated at 37° C. A dilution plate was prepared by pouring 78 μl of the appropriate culture medium using a robotic station Biomek (Beckman). Sequentially, using a robotic station, 2 μl of substances were taken and added to 78 μl of culture medium (dilution of compounds 40×). Took from there 10 μl and added to the plates to the cells (dilution of compounds 5×). The plates were incubated for 3 days at a temperature 37° C. After 3 days, 10 μl of CellTiter-Glo (Promega) was added to the cells and the luminescence was measured.

[4] = target: FLT3 (wt) (Homo sapiens (Human), UniProt P36888); assay: FLT3 kinase radiometric HotSpot assay, FLT3 (wt); type: biochemical
Method: (§1) Example D. FLT3 inhibitory activity and cytotoxicity. This assay was used to determine potency of FLT3 enzymatic activity inhibition. Corresponding biochemical inhibition of enzymatic activities of FLT3 (wt), FLT3 (D835Y), and FLT3 (ITD) were measured using recombinant protein constructs of kinase domains via activity based FLT3 kinase assay for compound screening and profiling via radiometric HotSpot™ kinase assay (Reaction Biology). Peptide substrate [[…]]. Compounds were dissolved to 10 mM in DMSO. Compounds were tested in 10-dose IC50 mode with a 3-fold serial dilution starting at 0.3 μM. […] Reactions were carried out at 1 μM ATP. The estimated Ki values were calculated by using the formula presented below, which is applicable for ATP competitive inhibitors: Ki=IC50/(1+[S]/Km). […] In Table E shown HEK293 cytotoxicity.

[5] = HEK293 cytotoxicity; type: cell-based; conditions: human, HEK293 cells
Method: as §1

[6] = target: FLT3 (D835Y) (Homo sapiens (Human), UniProt P36888, D835Y); assay: FLT3 kinase radiometric HotSpot assay, FLT3 (D835Y); type: biochemical
Method: as §1

[7] = target: FLT3 (ITD) (Homo sapiens, UniProt P36888, ITD); assay: FLT3 kinase radiometric HotSpot assay, FLT3 (ITD); type: biochemical
[8] = MOLM-13 cells, read-out: MOLM-13, CC50
[9] = 72 h, MV4-11 cells, 3 days, CellTiter-Glo

Chain of recombinant HPK1 protein (Q92918 whole entry): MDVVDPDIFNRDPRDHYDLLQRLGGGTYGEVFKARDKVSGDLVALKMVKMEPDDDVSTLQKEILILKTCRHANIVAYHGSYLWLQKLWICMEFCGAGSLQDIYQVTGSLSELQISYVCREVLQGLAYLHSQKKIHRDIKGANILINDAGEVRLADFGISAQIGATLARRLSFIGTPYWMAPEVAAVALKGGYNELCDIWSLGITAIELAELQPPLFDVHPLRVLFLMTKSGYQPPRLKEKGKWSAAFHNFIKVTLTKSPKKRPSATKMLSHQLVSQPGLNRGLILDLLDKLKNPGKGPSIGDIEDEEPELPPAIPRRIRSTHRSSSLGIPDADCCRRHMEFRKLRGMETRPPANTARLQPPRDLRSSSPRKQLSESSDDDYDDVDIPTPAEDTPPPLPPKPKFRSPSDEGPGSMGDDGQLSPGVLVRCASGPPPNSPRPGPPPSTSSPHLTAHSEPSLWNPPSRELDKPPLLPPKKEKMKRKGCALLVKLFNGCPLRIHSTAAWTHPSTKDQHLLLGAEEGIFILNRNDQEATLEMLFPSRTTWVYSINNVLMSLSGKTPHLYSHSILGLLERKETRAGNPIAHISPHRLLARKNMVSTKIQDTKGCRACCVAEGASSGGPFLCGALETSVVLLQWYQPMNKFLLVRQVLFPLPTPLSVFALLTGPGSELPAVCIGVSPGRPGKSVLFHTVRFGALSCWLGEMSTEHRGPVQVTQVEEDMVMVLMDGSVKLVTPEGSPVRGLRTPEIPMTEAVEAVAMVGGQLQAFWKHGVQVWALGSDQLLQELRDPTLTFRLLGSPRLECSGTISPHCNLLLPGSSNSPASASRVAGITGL

SMILES	Ki [1]	CC50 [2, 8]	CC50 [3, 9]	Ki [4]	Ki [6]	further results
COc1ccc2ncc3c(-c4ccc(OCCN(C)C)c(OC)c4)nn(-c4ccc(C)c(C)c4)c3c2c1 [Compound 1.24, (2-{4-[1-(3,4-dimethylphenyl)-8-methoxy-1H-pyrazolo[4,3-c]quinolin-3-yl]-2-methoxyphenoxy}ethyl)dimethylamine]	10 to 20 nM					CC50 ([2]; MOLM-13, read-out: MOLM-13, CC50): < 500 nM; CC50 ([3]; MV4-11, 72 h): < 50 nM
COc1ccc2ncc3c(-c4ccc(N5CCN(C)CC5)cc4)nn(-c4ccc(C)c(C)c4)c3c2c1 [Compound 1.16, 1-{4-[1-(3,4-dimethylphenyl)-8-methoxy-1H-pyrazolo[4,3-c]quinolin-3-yl]phenyl}-4-methylpiperazine]	10 to 20 nM	< 500 nM	50 to 100 nM			
COc1ccc2ncc3c(-c4ccc(OC)c(OC)c4)nn(-c4ccc5c(c4)CNC5)c3c2c1 [Compound 1.36, 5-[3-(3,4-dimethoxyphenyl)-8-methoxy-1H-pyrazolo[4,3-c]quinolin-1-yl]-2,3-dihydro-1H-isoindole]	< 10 nM			< 0.5 nM	< 0.5 nM	CC50 [5]: < 10000 nM; Ki ([7]; read-out: Ki, nM FLT3 (ITD)): 0.5 to 2 nM
COc1ccc2ncc3c(-c4cccc(N5CCC(N(C)C)CC5)c4)nn(-c4cccc(C)c4C)c3c2c1 [Compound 1.14, 1-{3-[1-(2,3-dimethylphenyl)-8-methoxy-1H-pyrazolo[4,3-c]quinolin-3-yl]phenyl}-N,N-dimethylpiperidin-4-amine]	< 10 nM		> 500 nM			
COc1ccc2ncc3c(-c4ccc(OC)c(OC)c4)nn(-c4ccc5c(c4)CCNC5)c3c2c1 [Compound 1.35, 6-[3-(3,4-dimethoxyphenyl)-8-methoxy-1H-pyrazolo[4,3-c]quinolin-1-yl]-1,2,3,4-tetrahydroisoquinoline]	< 10 nM			< 0.5 nM	< 0.5 nM	CC50 [5]: < 10000 nM; Ki ([7]; read-out: Ki, nM FLT3 (ITD)): 0.5 to 2 nM
COc1ccc2ncc3c(-c4cccc(N5CCN(C)CC5)c4)nn(-c4ccc(C)c(C)c4)c3c2c1 [Compound 1.3, 1-{3-[1-(3,4-dimethylphenyl)-8-methoxy-1H-pyrazolo[4,3-c]quinolin-3-yl]phenyl}-4-methylpiperazine]	10 to 20 nM	> 5000 nM	100 to 500 nM			
Cc1ccc(-n2nc(-c3ccc(N4CCNCC4)cc3)c3cnc4ccccc4c32)cc1C [Compound 1.22, 1-{4-[1-(3,4-dimethylphenyl)-1H-pyrazolo[4,3-c]quinolin-3-yl]phenyl}piperazine]	≥ 50 nM	1000 to 5000 nM	100 to 500 nM			
COc1ccc2ncc3c(-c4ccc(OCCCN5CCOCC5)c(OC)c4)nn(-c4ccc(C)c(C)c4)c3c2c1 [Compound 1.26, 4-(3-{4-[1-(3,4-dimethylphenyl)-8-methoxy-1H-pyrazolo[4,3-c]quinolin-3-yl]-2-methoxyphenoxy}propyl)morpholine]	20 to 50 nM	500 to 1000 nM	50 to 100 nM			
Cc1ccc(-n2nc(-c3ccc(N4CCN(C)CC4)cc3)c3cnc4ccccc4c32)cc1C [Compound 1.21, 1-{4-[1-(3,4-dimethylphenyl)-1H-pyrazolo[4,3-c]quinolin-3-yl]phenyl}-4-methylpiperazine]	≥ 50 nM	1000 to 5000 nM	100 to 500 nM			
COc1ccc2ncc3c(-c4ccc(OCCN5CCOCC5)c(OC)c4)nn(-c4ccc(C)c(C)c4)c3c2c1 [Compound 1.25, 4-(2-{4-[1-(3,4-dimethylphenyl)-8-methoxy-1H-pyrazolo[4,3-c]quinolin-3-yl]-2-methoxyphenoxy}ethyl)morpholine]	20 to 50 nM	1000 to 5000 nM	100 to 500 nM			
COc1ccc2ncc3c(-c4ccc(N(C)CCCN(C)C)cc4)nn(-c4ccc(C)c(C)c4)c3c2c1 [Compound 1.18, N-[3-(dimethylamino)propyl]-4-[1-(3,4-dimethylphenyl)-8-methoxy-1H-pyrazolo[4,3-c]quinolin-3-yl]-N-methylaniline]	20 to 50 nM	> 5000 nM	100 to 500 nM			
COc1ccc2ncc3c(-c4cccc(N5CCC(N(C)C)CC5)c4)nn(-c4ccc(C)c(C)c4)c3c2c1 [Compound 1.1, 1-{3-[1-(3,4-dimethylphenyl)-8-methoxy-1H-pyrazolo[4,3-c]quinolin-3-yl]phenyl}-N,N-dimethylpiperidin-4-amine]	10 to 20 nM	1000 to 5000 nM	> 500 nM			
COc1ccc(-c2nn(-c3ccc4c(c3)CNCC4)c3c2cnc2ccccc23)cc1OC [Compound 1.31, 7-[3-(3,4-dimethoxyphenyl)-1H-pyrazolo[4,3-c]quinolin-1-yl]-1,2,3,4-tetrahydroisoquinoline]				< 0.5 nM	< 0.5 nM	CC50 [5]: < 10000 nM; Ki [7]: 0.5 to 2 nM
COc1ccc(-c2nn(-c3ccc4c(c3)CCNC4)c3c2cnc2ccccc23)cc1OC [Compound 1.32, 6-[3-(3,4-dimethoxyphenyl)-1H-pyrazolo[4,3-c]quinolin-1-yl]-1,2,3,4-tetrahydroisoquinoline]				0.5 to 2 nM	0.5 to 2 nM	CC50 [5]: 10000 to 50000 nM; Ki [7]: > 5 nM
COc1ccc2ncc3c(-c4ccc(N5CCC(N(C)C)CC5)cc4)nn(-c4ccc(C)c(C)c4)c3c2c1 [Compound 1.17, 1-{4-[1-(3,4-dimethylphenyl)-8-methoxy-1H-pyrazolo[4,3-c]quinolin-3-yl]phenyl}-N,N-dimethylpiperidin-4-amine]	10 to 20 nM		50 to 100 nM			
COc1ccc(-c2nn(-c3ccc4c(c3)CNC4)c3c2cnc2ccccc23)cc1OC [Compound 1.33, 5-[3-(3,4-dimethoxyphenyl)-1H-pyrazolo[4,3-c]quinolin-1-yl]-2,3-dihydro-1H-isoindole]				0.5 to 2 nM	< 0.5 nM	CC50 [5]: ≥ 50000 nM; Ki [7]: 2 to 5 nM
COc1ccc2ncc3c(-c4ccc(OC)c(OC)c4)nn(-c4ccc5c(c4)CNCC5)c3c2c1 [Compound 1.34, 7-[3-(3,4-dimethoxyphenyl)-8-methoxy-1H-pyrazolo[4,3-c]quinolin-1-yl]-1,2,3,4-tetrahydroisoquinoline]				< 0.5 nM	< 0.5 nM	Ki ([7]; read-out: Ki, nM FLT3 (ITD)): < 0.5 nM
